Publication PMC8675330 (Frontiers in Pharmacology, 2021)
Where a name gives a salt, the structure may show the parent alone. Read-outs that look alike come from different tables or passages of the source. Marks after values point to notes of the source that are not given here.

Assays:
[1] = In vivo pharmacokinetics in plasma, brain and lung after IV, IN and IN + BorNLC co-administration; parameters: species or system CD-1 mice; conditions: for Cmax / Tmax / Kp / AUC(0-t): CD-1, mouse
Protocol: Healthy adult CD-1 mice (25–30 g) were acquired from Charles River Laboratories (L’Arbresle, France) and accommodated in a relative humidity of 55 ± 5%, a controlled temperature of 20 ± 2°C, and reversed 12 h light–dark cycles. The studies were always performed in the dark phase (active phase between 08h00 and 20h00). A period of at least 7 days was considered for the animals to become familiarized with the environment. Animals had ad libitum access to food (4RF21, Mucedola®, Italy) and tap water during the entire experiment period.
Before treatment, animals were anesthetized by intraperitoneal administration of a mixture of ketamine (100 mg/kg) and xylazine (10 mg/kg) to keep them immobile during IN or IV administration. Animals were randomly divided into 3 groups (n = 28) and subdivided into 7 time-points (n = 4). […] Briefly, Pluronic F-127 (18%, w/v) and Carbopol 974P (0.2%, w/v) were added to cold water, since the first guarantees the thermoreversible characteristic of the nasal gel ([Swamy and Abbas, 2012]) and the second increases the bioadhesive properties of the gel, thus increasing the residence time in the nasal cavity and improving the central delivery of antidepressant drugs. […] Anesthetized animals were instilled with 14–25 µl (2.38 mg/kg) of the gel with a polyurethane tube (24G x 19 mm) attached to a microliter syringe. Formulation delivery was performed into one of the nostrils, where the tube was inserted about 10 mm deep.
Animals were sacrificed by cervical dislocation and decapitation at 5, 15, 30, 60, 120, 240, and 480 min after administration, and heparinized tubes were used for blood collection. Blood samples were centrifuged at 1,252 g for 10 min at 4°C, and plasma supernatants were analyzed by HPLC-DAD. The mice brain and lungs were quickly removed and gently cleaned with a sterile gauze humidified with saline to remove adherent surface blood. Then, these organs were weighed and homogenized in NaCl 0.9% (3 ml/g of tissue) using a tissue homogenizer with a Teflon® pestle from Thomas Scientific (Swedesboro, NJ, United States).
Briefly, 300 μl of methanol were added to 200 μl of plasma, 200 μl of lung homogenate, or 400 μl of brain homogenate for protein precipitation. After two extractions with 700 μl of n-hexane:alcohol isoamyl (98:2, v/v) mixture, organic phases were evaporated. Last, following reconstitution with 100 μl of a mixture of 20 mM phosphate buffer pH 3.8 and acetonitrile (70:30, v/v), the plasma and lung homogenate samples were transferred to a 0.22-μm Costar® Spin-X® centrifugal filter (Corning, Inc., NY, United States) and centrifuged at 12,100 g for 3 min. All final samples were injected (20 µl) into the HPLC-DAD system, in accordance with the analytical conditions described in section 2.2.1. The detection wavelength to quantify the IS was set at 290 nm.
The remaining pharmacokinetic parameters were estimated by non-compartmental analysis using WinNonlin® version 6.4 software (Certara, Princeton, NJ). Plasma and tissue concentrations below the lower limit of quantification (LLOQ) of the analytical method were considered zero for the pharmacokinetic data analysis.
For both drugs and in all matrices, the area under the concentration–time curve from time zero (AUC) to the time of the last measurable drug concentration (AUCt) was calculated by the linear trapezoidal rule.
To evaluate drug distribution into the brain and lungs after administration, the ratios were determined based on the quotient AUCt(tissue)/AUCt(plasma). The drug targeting efficiency (DTE) was calculated following Eq. 6: DTE(%)=(AUCt(brain)/AUCt(plasma))IN/(AUCt(brain)/AUCt(plasma))IV×100 (6)
Finally, to evaluate the direct drug passage from the nose to the brain, the direct transport percentage (DTP) was determined applying Eq. 7: DTP(%)=AUCt(brain) IN−[(AUCt(brain) IV/AUCt(plasma) IV)×AUCt(plasma) IN]/AUCbrain IN×100 (7)

[2] = Solubility of escitalopram and paroxetine in liquid lipids; format: physicochemical; conditions: 24 h stirring at 25°C, n = 3, mean ± SD; for solubility at 24 h: oil or lipid, thermodynamic from solid
Protocol: Briefly, 0.5 g of solid lipid Precirol® ATO 5 was melted in a controlled temperature water bath at 65°C. […] Regarding liquid lipids (oleic acid, Labrasol®, Labrafac™ PG, Lauroglycol™ 90, and Miglyol® 812 N), both drugs were dispersed in screw-capped tubes with the liquid compounds (0.5 ml each) and kept under mechanical stirring for 24 h at 25°C. […] An aliquot of the supernatant was diluted with the mobile phase, filtered through a 0.22-µm membrane, and analyzed. […] The HPLC-DAD apparatus and data acquisition were controlled by using Lab Solutions Software (Shimadzu Corporation, Tokyo, Japan). […] The mobile phase was composed of 20 mM phosphate buffer (pH 3.8 adjusted with orthophosphoric acid) and acetonitrile (80:20, v/v) pumped at a flow rate of 1.0 ml/min.

[3] = parameters: method as in Kreilgaard et al., 2008; conditions: single subcutaneous injection, three doses (escitalopram 0.240-3.90 mg/kg; paroxetine 0.270-4.40 mg/kg); ref Kreilgaard et al., 2008; cited from earlier work
P-glycoprotein (P-gp) = conditions: cited from earlier work
[4] = significant first-pass metabolism; no reference given; cited from earlier work
[5] = brain, inhaled or intranasal, 2.38 mg/kg
[6] = lung, inhaled or intranasal, 2.38 mg/kg
[7] = plasma, inhaled or intranasal, 2.38 mg/kg
[8] = Lauroglycol 90 (liquid lipid), in Lauroglycol 90
[9] = oleic acid (liquid lipid), in oleic acid
[10] = inhaled or intranasal, paroxetine, brain, IN free drug, 2.38 mg/kg
[11] = inhaled or intranasal, paroxetine, lung, IN free drug, 2.38 mg/kg
[12] = inhaled or intranasal, paroxetine, plasma, IN free drug, 2.38 mg/kg
[13] = paroxetine, brain, IV free drug, 2.38 mg/kg
[14] = paroxetine, lung, IV free drug, 2.38 mg/kg
[15] = paroxetine, plasma, IV free drug, 2.38 mg/kg
[16] = paroxetine, IN free drug vs IV, 2.38 mg/kg

CN(C)CCC[C@@]1(c2ccc(F)cc2)OCc2cc(C#N)ccc21 [Escitalopram, escitalopram oxalate]
Cmax [1, 5]: 133 ng/g | Tmax [1, 5]: 60 min | Cmax ([1]; brain, iv, 2.38 mg/kg): 511 ng/g | Tmax ([1]; brain, iv, 2.38 mg/kg): 15 min | Kp ([1]; brain/plasma, iv, 2.38 mg/kg, read-out: AUCtbrain/AUCtplasma): 0.871 | Kp ([1]; brain/plasma, other: intranasal (IN), 2.38 mg/kg, read-out: AUCtbrain/AUCtplasma): 0.86 | Cmax [1, 6]: 2310 ng/g | Tmax [1, 6]: 30 min | Cmax ([1]; lung, iv, 2.38 mg/kg): 1020 ng/g | Tmax ([1]; lung, iv, 2.38 mg/kg): 60 min | Kp ([1]; lung/plasma, iv, 2.38 mg/kg, read-out: AUCtlung/AUCtplasma): 2.45 | Kp ([1]; lung/plasma, other: intranasal (IN), 2.38 mg/kg, read-out: AUCtlung/AUCtplasma): 10.6 | AUC(0-t) [1, 7]: 507 ng·h/mL | Cmax [1, 7]: 550 ng/mL | Tmax [1, 7]: 5 min | AUC(0-t) ([1]; plasma, iv, 2.38 mg/kg): 1150 ng·h/mL | Cmax ([1]; plasma, iv, 2.38 mg/kg): 482 ng/mL | Tmax ([1]; plasma, iv, 2.38 mg/kg): 5 min | AUCt ([1]; escitalopram, brain, IN free drug, 2.38 mg/kg): 26.2 ^c µg.min/g | AUCt ([1]; escitalopram, brain, IV free drug, 2.38 mg/kg): 59.8 ^c µg.min/g | AUCt ([1]; escitalopram, lung, IN free drug, 2.38 mg/kg): 321 ^c µg.min/g | AUCt ([1]; escitalopram, lung, IN free drug, 2.38 mg/kg, listed as escitalopram): 168 µg·min/g | AUCt ([1]; escitalopram, lung, IV free drug, 2.38 mg/kg): 168 ^c µg.min/g | AUCt ([1]; escitalopram, lung, IV free drug, 2.38 mg/kg, listed as escitalopram): 321 µg·min/g | lung Cmax after free drug IN administration, times superior to BorNLC IN ([1]; escitalopram, lung, free IN vs BorNLC IN): 3.8 times | lung Cmax after free drug IN administration, times superior to IV ([1]; escitalopram, lung, free IN vs IV): 2.3 times | solubility at 24 h ([2]; Labrafac PG (liquid lipid), in Labrafac PG, n.d. = not detected): 1340 ± 1120 µg/mL | solubility at 24 h ([2]; Labrasol (liquid lipid), in Labrasol): 14700 ± 14000 µg/mL | solubility at 24 h [2, 8]: 6910 ± 130 µg/mL | solubility at 24 h [2, 9]: 840 ± 120 µg/mL | tmax in the plasma [3]: 3.00 to 5.40 min

Fc1ccc([C@@H]2CCNC[C@H]2COc2ccc3c(c2)OCO3)cc1 [Paroxetine, Paroxetine hydrochloride]
P-gp IC50 relative to therapeutic plasma concentrations (P-glycoprotein (P-gp); IC50 higher than therapeutic plasma concentrations, ref Hiemke et al., 2018): about 150 fold | P-gp inhibition IC50 (P-glycoprotein (P-gp); in vitro, ref Feng et al., 2008): 10 µg/mL | Kp ([1]; brain/plasma, iv, 2.38 mg/kg, paroxetine, IV free drug, 2.38 mg/kg, read-out: AUCtbrain/AUCtplasma): 0.35 | Kp ([1]; brain/plasma, other: intranasal (IN), 2.38 mg/kg, paroxetine, IN free drug, 2.38 mg/kg, read-out: AUCtbrain/AUCtplasma): 0.82 | Cmax [1, 10]: 283 ng/g | Tmax [1, 10]: 120 min | Cmax [1, 11]: 2820 ng/g | Tmax [1, 11]: 60 min | AUC(0-t) [1, 12]: 1390 ng·h/mL | Cmax [1, 12]: 696 ng/mL | Kp ([1]; lung/plasma, iv, 2.38 mg/kg, paroxetine, IV free drug, 2.38 mg/kg, read-out: AUCtlung/AUCtplasma): 2.63 | Kp ([1]; lung/plasma, other: intranasal, 2.38 mg/kg, paroxetine, IN free drug, 2.38 mg/kg, read-out: AUCtlung/AUCtplasma): 8.4 | Tmax [1, 7]: 5 min | Tmax ([1]; plasma, iv, 2.38 mg/kg): 5 min | Cmax [1, 13]: 233 ng/g | Tmax [1, 13]: 120 min | Cmax [1, 14]: 1010 ng/g | Tmax [1, 14]: 30 min | AUC(0-t) [1, 15]: 1630 ng·h/mL | Cmax [1, 15]: 820 ng/mL | DTE (drug targeting efficiency) [1, 16]: 232% | DTP (direct transport percentage) [1, 16]: 56.9% | AUCtbrain/AUCtplasma ([1]; paroxetine, IN free drug, 2.38 mg/kg): 0.821 | AUCtbrain/AUCtplasma ([1]; paroxetine, IV free drug, 2.38 mg/kg): 0.354 | AUCt ([1]; paroxetine, brain, IN free drug, 2.38 mg/kg): 68.2 ^c µg min/g | higher brain exposure (given by AUCt) than that of IV injection ([1]; paroxetine, brain, IN vs IV): 49% | AUCt [1, 13]: 34.6 ^c µg min/g | AUCt ([1]; paroxetine, lung, IN free drug, 2.38 mg/kg): 699 ^c µg min/g | AUCt [1, 14]: 257 ^c µg min/g | oral bioavailability [4]: 30 to 60% | solubility at 24 h [2, 8]: 13800 ± 1260 µg/mL | solubility ([2]; in Labrasol): 24.0 ± 30.5 mg/mL | solubility at 24 h [2, 9]: 1070 ± 580 µg/mL | tmax in the plasma [3]: 4.80 to 5.40 min
